# Reference: US12383522B2, “Baclofen formulations and methods of minimizing patient exposure to metabolite variations” (AMNEAL PHARMACEUTICALS LLC, priority 2021, dated 2025)
# Like-named read-outs stand apart in the source and are kept apart here.
# How the values were obtained:
# [1] = background statement; cited from earlier work
# [2] = Accelerated stability studies of API/stabilizer preparations (Example 1), lactam impurity A by HPLC; assay type: physicochemical
compound,measurement,setting,value
"O=C(O)CC(CO)c1ccc(Cl)cc1 (centres unmarked) [Treatment M1, 3-(4-chlorophenyl)-4-hydroxybutyric acid]",biological activity of metabolite (limited evaluation),[1],inactive
same,share of dominant metabolite of baclofen (reported),[1],15%
"NCC(CC(=O)O)c1ccc(Cl)cc1 (centres unmarked) [baclofen, 4-amino-3-(4-chlorophenyl)butanoic acid]",effect of EUDRAGIT E on formation of lactam impurity A,"[2]; closed glass vials, 60° C. (baclofen, gabapentin) or 80° C. (pregabalin), HPLC, FIGS. 1-12",stabilization effect
NCC1(CC(=O)O)CCCCC1 [gabapentin],effect of EUDRAGIT E on formation of lactam impurity A,[2],destabilization effect
CC(C)C[C@H](CN)CC(=O)O [pregabalin],effect of EUDRAGIT E on formation of lactam impurity A,[2],destabilization effect
